Reference: patent US20240400638A1, “COMBINATION OF RELAXIN AND VASOPRESSIN ANALOGUES FOR TREATMENT OF RENAL DISORDERS OR CONDITIONS” (River 2 Renal Corp., priority 2021, published 2024)
Like-named read-outs stand apart in the source and are kept apart here. Numbered stars: 1 amine (or outer) side, 2 acyl side, 3 side chain; on linkers, the order of the positions; unused ones are H or OH. Square brackets hold non-standard residues; d marks the D form. Side chains are listed from the residue outwards. Peptide text beside a SMILES is read from it. * marks the point of attachment. X1 = CCCCCCCCCCCCCCCC(=O)N[C@@H](CCC(=O)N[C@@H](CCC(=O)N[C@@H](CCC(=O)NCCCOCCOCCOCCCNC(=O)CCC(=O)NCCCOCCOCCOCCCNC(=O)CCC(=O)NCCCOCCOCCOCCCN*)C(=O)O)C(=O)O)C(=O)O; Suc = O=C(CCC(=O)[*:2])[*:1]; αMeK = C[C@](N)(CCCCN)C(=O)O; Aib = CC(C)(N)C(=O)O

Columns and labels:
Format in all cases: in vivo, human
[1] = Phase 1 SAD/MAD study in healthy volunteers: pharmacokinetics; details: for AUC(0-t): read-out: AUC0-24
Experimental: (§1) Described in this Example is a Phase 1, randomized, double-blind, pacebo controlled trial for assessing safety, tolerability, PK, and PD of a Relaxin Agonist (i.e., Relaxin peptide analogue of SEQ ID NO: 3).
(§2) The SAD part A was a SAD study with a total of 40 subjects (n=8 per cohort; 6 to Relaxin Agonist and 2 to placebo) to be enrolled sequentially in up to 5 cohorts (Cohorts A1 to A5). Four cohorts received a dose via SC injection only and 1 cohort (Cohort A2, 4.0 mg) was dosed via both SC and IV injection, with at least 2-week washout period between SC and IV injections. The 4.0 mg dosing cohort (Cohort A2) received the IV dose after the 12.0 mg SC cohort (Cohort A3) was completed. Subjects in each cohort received 1 of 5 dose levels (1.0 mg, 4.0 mg, 12.0 mg, 24.0 mg, and 48.0 mg) or matching placebo as follows: • Cohort A1: a single SC dose of 1.0 mg Relaxin Agonist (n=6) or matching placebo (n=2) • Cohort A2: Period 1 a single SC dose of 4.0 mg Relaxin Agonist (n=6) or matching placebo (n=2) • Cohort A2: Period 2 a single 15-min IV dose of 4.0 mg Relaxin Agonist (n=6) or matching placebo (n=2) • Cohort A3: a single SC dose of 12.0 mg Relaxin Agonist (n=6) or matching placebo (n=2) • Cohort A4: a single SC dose of 24.0 mg Relaxin Agonist (n=6) or matching placebo (n=2) • Cohort A5: a single SC dose of 48.0 mg Relaxin Agonist (n=6) or matching placebo (n=2)
(§3) In the MAD part B of the study, a total of 24 subjects (n=8 per cohort; 6 to Relaxin Agonist and 2 to placebo) were enrolled sequentially (Cohorts B1 to B3) with subjects within a cohort being enrolled in a parallel fashion. Cohorts B1 to B3 receive one of 3 SC doses (5.0 mg, 15.0 mg, 30.0 mg once daily [QD]) as follows: • Cohort B1: 5.0 mg SC Relaxin Agonist (n=6) or matching placebo (n=2) QD for 14 days • Cohort B2: 15.0 mg SC Relaxin Agonist (n=6) or matching placebo (n=2) QD for 14 days • Cohort B3: 30.0 mg SC Relaxin Agonist (n=6) or matching placebo (n=2) QD for 14 days
After 24 mg and 48 mg sc doses, higher than dose-proportional exposures were observed (approximately 15% higher than expected).
Therefore, after sc administration, the absolute bioavailability (F) is approximately 0.76.
Preliminary PK results after single and multiple ascending doses of Relaxin Agonist administered subcutaneously (sc) are summarized in Table 6. For all dose regimens (5 mg, 15 mg, and 30 mg), an accumulation of approximately 2.6-fold was observed on Day 14.

[2] = Phase 1 SAD/MAD study in healthy volunteers: safety and tolerability
Experimental: as §1, §2
In this first-in-human study, the subjects in all SAD cohorts were dosed according to a sentinel dosing design to ensure optimal safety. This meant that initially 2 subjects were dosed: 1 subject with Relaxin Agonist and 1 subject with placebo. If at the lowest dose level (Cohort A1) the safety and tolerability results of the first 48 h following dosing for the initial subjects was acceptable to the Investigator, the other 6 subjects (5 active and 1 placebo) were to be dosed. In Cohorts A2 to A5, the safety and tolerability results of the first 24 h following dose administration were evaluated in the first 2 subjects before the remainder of the subjects in that cohort are dosed.
as §3

[3] = Phase 1 single dose study in severe renal impaired and normal renal function subjects: safety; details: single sc 4.0 mg
Description: (§4) This study is an open label, phase 1, multi-centre, single dose study in severe renal impaired subjects and in matched subjects with normal renal function. In this preliminary evaluation, five subjects with severe renal impairment and two subjects with normal renal function were included.

[4] = Phase 1 single dose study in severe renal impaired and normal renal function subjects: pharmacokinetics; details: for AUC(0-inf) / Cmax: human, in vivo, sc, 4 mg, single 4.0 mg sc; for AUC(0-inf): read-out: AUCINF_pred
Description: as §4
This study is a Phase 1, multi-center, single dose study in severe renal impaired subjects and in matched subjects with normal renal function. Five subjects with severe renal impairment and two subjects with normal renal function were included. PK sampling was performed predose and at 1, 2, 3, 4, 6, 8, 10, 12, 24, 48, 72, 96, and 120 h postdose.

[5] = part B: once daily sc 5.0, 15.0, 30 mg for 14 days
[6] = severe renal impaired group compared to normal group and SAD 4 mg group

For CCCCCCCCCCCCCCCC(=O)N[C@@H](CCC(=O)N[C@@H](CCC(=O)N[C@@H](CCC(=O)NCCCOCCOCCOCCCNC(=O)CCC(=O)NCCCOCCOCCOCCCNC(=O)CCC(=O)NCCCOCCOCCOCCCNC(=O)CCC(=O)NCCCC[C@H](NC(=O)CNC(=O)[C@H](CCC(=O)O)NC(=O)C(C)(C)NC(=O)C(C)(C)NC(=O)[C@@H](NC(=O)[C@H](CCCCNC(C)=O)NC(=O)[C@H](C)NC(=O)[C@H](CCCNC(=N)N)NC(=O)[C@@H](NC(=O)[C@H](CCCCN)NC(=O)[C@H](CCC(=O)O)NC(=O)[C@H](CCCNC(=N)N)NC(=O)CNC(=O)[C@H](CCC(=O)O)NC(=O)[C@H](CC(C)C)NC(C)=O)C(C)C)[C@@H](C)CC)C(=O)N[C@@H](CO)C(=O)N[C@H](C(=O)N[C@@H](Cc1ccccc1)C(=O)N[C@@H](CO)C(=O)N[C@@](C)(CCCCN)C(=O)N[C@@H](CCCNC(=N)N)C(=O)N[C@@H](C)C(=O)N[C@@H](CCCCNC(C)=O)C(N)=O)[C@@H](C)O)C(=O)O)C(=O)O)C(=O)O [SEQ ID NO: 3, Ac-L-E-G-R-E-K-V-R-A-K(Ac)-I-Aib-Aib-E-G-K(TTDS-TTDS-TTDS-gE-gE-gE-Palm)-S--T-F-S-Mly-R-A-K(Ac)-NH2] (Ac-LEGREKVRAK(Ac)I[Aib][Aib]EGK([Suc-X1])STFS[αMeK]RAK(Ac)-NH2), the “AUCinf after iv administration as compared to sc administration” value ([1]; 4 mg single dose iv vs sc) was roughly 1.3 fold, the “Cmax after iv administration as compared to sc administration” value ([1]; 4 mg single dose iv vs sc) was “approximately 3.5 fold” and the accumulation ([1]; Day 14, all dose regimens (5 mg, 15 mg, 30 mg sc QD)) was “approximately 2.6 fold”. The “exposure higher than expected (higher than dose-proportional)” value ([1]; after 24 mg and 48 mg sc single doses) was “approximately 15%”, the bioavailability ([1]; human, in vivo, 4 mg, after sc administration, read-out: absolute bioavailability (F)) was roughly 76% and the Cmax ([1]; human, in vivo, iv, 4 mg, Group A2, single 4.0 mg iv, mean, N=6, read-out: Cmax) was 1240 ng/mL. The Cmax ([1]; human, in vivo, sc, 1 mg, Group A1, single 1.0 mg sc, mean, N=6, read-out: Cmax) was 82.9 ng/mL, the Cmax ([1]; human, in vivo, sc, 4 mg, Group A2, single 4.0 mg sc, mean, N=6, read-out: Cmax) was 356 ng/mL and the AUC(0-t) ([1]; human, in vivo, sc, 5 mg, Group B1, 5 mg sc QD, Day 1, mean, N=6) was 7790 ng·h/mL. For the same compound, the Cmax ([1]; human, in vivo, sc, 5 mg, Group B1, 5 mg sc QD, Day 1, mean, N=6, read-out: Cmax) was 384 ng/mL, the Cmax ([1]; human, in vivo, sc, 5 mg, Group B1, 5 mg sc QD, Day 14, mean, N=6, Table 6, read-out: Cmax) was 1020 ng/mL and the Cmax ([1]; human, in vivo, sc, 5 mg, Group B1, 5 mg sc QD, Day 14, mean, N=6, Table 7, read-out: Cmax) was 1020 ng/mL. For the same compound, the AUC(0-t) ([1]; human, in vivo, sc, 5 mg, Group B1, 5 mg sc QD, Day 14, mean, N=6) was 21600 ng·h/mL, the Cmax ([1]; human, in vivo, sc, 12 mg, Group A3, single 12.0 mg sc, mean, N=6, read-out: Cmax) was 1000 ng/mL and the AUC(0-t) ([1]; human, in vivo, sc, 15 mg, Group B2, 15 mg sc QD, Day 1, mean, N=6) was 29600 ng·h/mL. It also gave a Cmax ([1]; human, in vivo, sc, 15 mg, Group B2, 15 mg sc QD, Day 1, mean, N=6, read-out: Cmax) of 1630 ng/mL, a Cmax ([1]; human, in vivo, sc, 15 mg, Group B2, 15 mg sc QD, Day 14, mean, N=6, Table 6, read-out: Cmax) of 3630 ng/mL and a Cmax ([1]; human, in vivo, sc, 15 mg, Group B2, 15 mg sc QD, Day 14, mean, N=6, Table 7, read-out: Cmax) of 3630 ng/mL. It also gave an AUC(0-t) ([1]; human, in vivo, sc, 15 mg, Group B2, 15 mg sc QD, Day 14, mean, N=6) of 67200 ng·h/mL, a Cmax ([1]; human, in vivo, sc, 24 mg, Group A4, single 24.0 mg sc, mean, N=6, read-out: Cmax) of 2360 ng/mL and an AUC(0-t) ([1]; human, in vivo, sc, 30 mg, Group B3, 30 mg sc QD, Day 1, mean, N=6) of 38400 ng·h/mL. For the same compound, the Cmax ([1]; human, in vivo, sc, 30 mg, Group B3, 30 mg sc QD, Day 1, mean, N=6, read-out: Cmax) was 2010 ng/mL, the Cmax ([1]; human, in vivo, sc, 30 mg, Group B3, 30 mg sc QD, Day 14, mean, N=6, Table 6, read-out: Cmax) was 6010 ng/mL and the Cmax ([1]; human, in vivo, sc, 30 mg, Group B3, 30 mg sc QD, Day 14, mean, N=6, Table 7, read-out: Cmax) was 6010 ng/mL. For the same compound, the AUC(0-t) ([1]; human, in vivo, sc, 30 mg, Group B3, 30 mg sc QD, Day 14, mean, N=6) was 118000 ng·h/mL, the Cmax ([1]; human, in vivo, sc, 48 mg, Group A5, single 48.0 mg sc, mean, N=6, read-out: Cmax) was 4560 ng/mL and the Cmax ([1]; human, in vivo, subcutaneous, 4 mg, SAD study after 4 mg, read-out: Mean Cmax) was 356 ng/mL. For the same compound, the AUC(0-inf) ([1]; human, in vivo, Group A1, single 1.0 mg sc, mean, N=6) was 3220 ng·h/mL, the AUC(0-inf) ([1]; human, in vivo, Group A2, single 4.0 mg iv, mean, N=6) was 19700 ng·h/mL and the AUC(0-inf) ([1]; human, in vivo, Group A2, single 4.0 mg sc, mean, N=6) was 15000 ng·h/mL. It also gave an AUC(0-inf) ([1]; human, in vivo, Group A3, single 12.0 mg sc, mean, N=6) of 37100 ng·h/mL, an AUC(0-inf) ([1]; human, in vivo, Group A4, single 24.0 mg sc, mean, N=6) of 78600 ng·h/mL and an AUC(0-inf) ([1]; human, in vivo, Group A5, single 48.0 mg sc, mean, N=6) of 178000 ng·h/mL. For the same compound, the AUC(0-inf) ([1]; human, in vivo, Group B1, 5 mg sc QD, Day 14, mean, N=6) was 50300 ng·h/mL, the half-life ([1]; human, in vivo, Group B1, 5 mg sc QD, Day 14, mean, N=6, read-out: T½ (converted)) was 23.4 h and the AUC(0-inf) ([1]; human, in vivo, Group B2, 15 mg sc QD, Day 14, mean, N=6) was 143000 ng·h/mL. It also gave a half-life ([1]; human, in vivo, Group B2, 15 mg sc QD, Day 14, mean, N=6, read-out: T½ (converted)) of 22.9 h, an AUC(0-inf) ([1]; human, in vivo, Group B3, 30 mg sc QD, Day 14, mean, N=6) of 278000 ng·h/mL and a half-life ([1]; human, in vivo, Group B3, 30 mg sc QD, Day 14, mean, N=6, read-out: T½ (converted)) of 24.3 h. The half-life ([1]; human, in vivo, sc multiple ascending doses, read-out: Terminal half life) was 23 to 24 h, the “dose proportionality of exposures” value ([1]; multiple ascending sc doses, up to dose regimen of 30 mg) was “increased dose-proportionally” and the “dose proportionality of exposures” value ([1]; single ascending sc doses, up to a dose of 12 mg) was “increased dose-proportionally”. The tolerability and safety ([2]; part A: single sc 1.0, 4.0, 12.0, 24, 48 mg and single iv 4.0 mg) was “well tolerated and safe”, the “severity of reported adverse events” value ([2]; part A: single sc 1.0-48 mg and iv 4.0 mg) was “mild (grade 1)” and the “severity of reported adverse events” value [2, 5] was “mild (grade 1)”. The tolerability and safety [2, 5] was “well tolerated and safe”, the tolerability and safety ([3]; 5 subjects severe renal impairment and 2 normal renal function) was “well tolerated and safe” and the “severity of reported adverse events” value ([3]; two AEs (palpitation, headache) in one subject) was “grade 1 (mild)”. It also gave an AUC(0-inf) ([4]; Normal renal function group, mean, N=2) of 12900 ng·h/mL, a Cmax ([4]; Normal renal function group, mean, N=2, read-out: Cmax) of 302 ng/mL and an AUC(0-inf) ([4]; Severe renal impairment group, mean, N=5) of 17000 ng·h/mL. It also gave a Cmax ([4]; Severe renal impairment group, mean, N=5, read-out: Cmax) of 392 ng/mL, a Cmax ([4]; normal group, read-out: Mean Cmax) of 302 ng/mL and a Cmax ([4]; severe renal impaired group, read-out: Mean Cmax) of 392 ng/mL. The “increase of mean AUCinf” value [4, 6] was 14-31% and the “increase of mean Cmax” value [4, 6] was 10-30%.
